Results taken from ChEMBL document CHEMBL5260858, “Targeting mycobacterial membranes and membrane proteins: Progress and limitations” (Bioorg Med Chem, 2023).
Converted amounts (≈) assume the structure as drawn.

Assays:
[1] = system: Mycobacterium tuberculosis; assay: Antitubercular activity against Mycobacterium tuberculosis H37Rv ATCC25618 assessed as bacterial growth inhibition incubated for 6 days by resazurin based fluorescence analysis; format: functional; conditions: H37Rv ATCC25618, 144 h, time 6 day
[2] = system: Mycobacterium tuberculosis; assay: Antitubercular activity against Mycobacterium tuberculosis H37Rv infected in human THP-1 cells assessed as bacterial growth inhibition incubated for 48 hrs by PrestoBlue staining based fluorescence analysis; format: functional, organism-based; conditions: THP-1, 48 h
[3] = system: Mycobacterium tuberculosis; assay: Antitubercular activity against Mycobacterium tuberculosis H37Rv assessed as bacterial growth inhibition incubated for 7 days by resazurin reduction microplate assay; format: functional; conditions: 168 h, time 7 day
[4] = system: Mycobacterium tuberculosis; assay: Antitubercular activity against Mycobacterium tuberculosis H37Rv assessed as bacterial growth inhibition incubated for 6 days by resazurin based fluorescence assay; format: functional; conditions: 144 h, time 6 day
[5] = system: Mycobacterium tuberculosis; assay: Antitubercular activity against Mycobacterium tuberculosis H37Rv assessed as bacterial growth inhibition incubated for 24 hrs by [14C]-acetate labelling based radiometric analysis; format: functional
[6] = system: Mycobacterium tuberculosis; assay: Antitubercular activity against Mycobacterium tuberculosis assessed as bacterial growth inhibition; format: functional
[7] = system: Mycobacterium tuberculosis; assay: Antitubercular activity against Mycobacterium tuberculosis H37Rv assessed as bacterial growth inhibition; format: functional
[8] = system: Mycobacterium tuberculosis; assay: Antitubercular activity against Mycobacterium tuberculosis MDR_CHUV assessed as bacterial growth inhibition by REMA analysis; format: functional
[9] = system: Mycobacterium tuberculosis; assay: Antimycobacterial activity against Mycobacterium tuberculosis H37Rv ATCC27294 assessed as bacterial growth inhibition incubated for 7 days by microplate Alamar blue assay; format: functional; conditions: H37Rv ATCC27294, 168 h, time 7 day
[10] = system: Mycobacterium tuberculosis; assay: Antitubercular activity against Mycobacterium tuberculosis mc2 7000 assessed as bacterial growth inhibition incubated for 6 days by resazurin based fluorescence assay; format: functional; conditions: mc2 7000, 144 h, time 6 day
[11] = system: Mycobacterium tuberculosis; assay: Antitubercular activity against Mycobacterium tuberculosis H37Rv assessed as bacterial growth inhibition by REMA analysis; format: functional
[12] = system: Mycobacterium tuberculosis; assay: Antimycobacterial activity against Mycobacterium tuberculosis H37Rv assessed as bacterial growth inhibition incubated for 6 days by resazurin dye based assay; format: functional; conditions: 144 h, time 6 day
[13] = system: Mycobacterium tuberculosis; assay: Antitubercular activity against Mycobacterium tuberculosis H37Rv expressing GFP assessed as bacterial growth inhibition by measuring GFP fluorescence incubated for 72 hrs by fluorescence analysis; format: functional
[14] = system: Mycobacterium tuberculosis; assay: Antitubercular activity against Mycobacterium tuberculosis H37Rv ATCC 27294 infected in mouse J774 cells assessed as intracellular bacterial growth inhibition incubated for by resazurin microtiter assay; format: functional
[15] = system: Mycobacterium tuberculosis; assay: Antitubercular activity against Mycobacterium tuberculosis H37Rv ATCC 27294 assessed as bacterial growth inhibition by resazurin microtiter assay; format: functional
[16] = system: Mycobacterium tuberculosis; assay: In vivo antimycobacterial activity against Mycobacterium tuberculosis H37Rv infected in BALB/c mouse assessed as reduction in log10 CFU in lungs at 50 mg/kg, po and measured after 4 weeks; format: functional
[17] = system: Mycobacterium tuberculosis; assay: In vivo antimycobacterial activity against Mycobacterium tuberculosis H37Rv infected in BALB/c mouse assessed as reduction in log10 CFU in lungs at 12.5 mg/kg, po and measured after 4 weeks; format: functional
[18] = system: Mycobacterium tuberculosis; assay: Antitubercular activity against Mycobacterium tuberculosis H37Rv assessed as bacterial growth inhibition incubated for 6 days by resazurin reduction microplate assay; format: functional; conditions: 144 h, time 6 day
[19] = system: Mycobacterium tuberculosis; assay: Antitubercular activity against Mycobacterium tuberculosis H37Rv infected in human HepG2 cells assessed as bacterial growth inhibition incubated for 4 weeks by resazurin reduction microtiter assay; format: functional, organism-based; conditions: HepG2, 672 h
[20] = system: Mycobacterium tuberculosis; assay: Antimycobacterial activity against Mycobacterium tuberculosis H37Rv assessed as bacterial growth inhibition incubated for 1 week by resazurin reduction microplate assay; format: functional; conditions: 168 h, time 1 weeks
[21] = molecular target: T1, Decaprenylphosphoryl-beta-D-ribose oxidase (Mycobacterium tuberculosis (strain ATCC 25618 / H37Rv), UniProt P9WJF1); assay: Inhibition of Mycobacterium tuberculosis H37Rv DprE1 assessed as formation of resorufin using farnesyl-phosphoryl-beta-D-ribofuranose by AmplexRed reagent based fluorescence assay
T1 sequence (P9WJF1 whole entry): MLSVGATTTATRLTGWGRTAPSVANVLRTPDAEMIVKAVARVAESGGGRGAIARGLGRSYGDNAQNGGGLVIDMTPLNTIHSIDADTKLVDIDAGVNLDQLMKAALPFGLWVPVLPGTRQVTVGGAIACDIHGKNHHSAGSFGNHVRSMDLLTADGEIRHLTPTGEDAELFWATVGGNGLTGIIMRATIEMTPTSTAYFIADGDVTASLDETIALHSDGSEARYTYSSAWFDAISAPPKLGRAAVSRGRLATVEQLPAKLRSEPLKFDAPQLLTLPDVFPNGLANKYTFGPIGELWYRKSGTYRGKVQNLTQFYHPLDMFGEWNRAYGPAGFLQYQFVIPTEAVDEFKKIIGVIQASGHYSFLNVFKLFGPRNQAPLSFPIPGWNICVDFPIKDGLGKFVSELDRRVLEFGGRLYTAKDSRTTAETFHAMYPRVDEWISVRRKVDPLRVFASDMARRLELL

[22] = system: Mycobacterium tuberculosis; assay: Antitubercular activity against Mycobacterium tuberculosis H37Rv infected in human HepG2 cells assessed as reduction in colony forming unit by CFU analysis; format: functional, organism-based

Q: Which MIC [1] does the source give for `CCCCCc1ccc(NC(=O)COc2cc(C)nc3ccc(OC)cc23)cc1` here?
A: 0.02 µg/mL (≈ 51 nM)

Q: What does the source list for `CCSc1nc(NC)c2cccc(F)c2n1`?
A: IC50 [2]: 0.013 µg/mL (≈ 54.8 nM); MIC [3]: 0.04 µg/mL (≈ 169 nM)

Q: `CCc1ccc([C@H]2C[C@@H](C(F)(F)F)n3ncc(C(=O)NCc4ccc(OC)cc4)c3N2)cc1` was tested. Which MIC [4] did it give?
A: 0.25 µM (≈ 0.115 µg/mL)

Q: For `CCc1ccc([C@H]2C[C@@H](C(F)(F)F)n3ncc(C(=O)NCc4ccc(F)cn4)c3N2)cc1`, which MIC [5] is on record?
A: 0.5 µM (≈ 0.224 µg/mL)

Q: How did the MIC [6] turn out when `O=C1CCc2c(cccc2OC[C@]2(O)CCN(c3c(F)cc(Cl)cc3F)C[C@H]2O)N1` was run?
A: 0.0005 µg/mL (≈ 1.14 nM)

Q: `CN1CCN(CCCN2c3ccccc3Sc3ccc(C(F)(F)F)cc32)CC1` [TRIFLUOPERAZINE] was tested. Which MIC [6] did it give?
A: 5 µg/mL (≈ 12300 nM)

Q: For `CCc1nc2ccc(Cl)cn2c1C(=O)NCc1ccc(N2CCC(c3ccc(OC(F)(F)F)cc3)CC2)cc1` [TELACEBEC], which MIC [7] is on record?
A: 0.0027 µM

Q: What does the source list for `O=c1nc(N2CCN(CC3CCCCC3)CC2)sc2c([N+](=O)[O-])cc(C(F)(F)F)cc12` [MACOZINONE]?
A: MIC99 [7]: 0.003 µg/mL (≈ 6.57 nM); MIC99 [8]: 0.0004 µg/mL (≈ 0.876 nM)

Q: For `O=c1nc(N2CC3CN(Cc4ccc(OC(F)(F)F)cc4)CC3C2)sc2c([N+](=O)[O-])cc(C(F)(F)F)cc12` (stereo not drawn), which MIC [9] is on record?
A: < 0.035 µM

Q: How did the MIC [10] turn out when `CCOC(=O)c1c(-c2ccccc2)oc2ccc(O)c(CN3CCCCC3)c12` was run?
A: 0.4 µM (≈ 0.152 µg/mL)

Q: With `CCCCCCCCn1cc(CN2CCCCCC2)c2c(F)cccc21` as the molecule, how does the MIC50 [7] read?
A: 2.3 µM

Q: With `CC(C)/N=c1\cc2n(-c3ccc(Cl)cc3)c3ccccc3nc-2cc1Nc1ccc(Cl)cc1` [CLOFAZIMINE] as the molecule, how does the MIC [7] read?
A: 0.12 µg/mL

Q: For `CCCCCCCN1CCN(c2nc(=O)c3cc(C(F)(F)F)cc([N+](=O)[O-])c3s2)CC1`, which MIC [11] is on record?
A: 0.00019 µg/mL (≈ 0.414 nM)

Q: How did the MIC [12] turn out when `O=c1nc(N2CCN(S(=O)(=O)C3CC3)CC2)sc2c([N+](=O)[O-])cc(C(F)(F)F)cc12` was run?
A: 0.003 µg/mL (≈ 6.46 nM)

Q: For `CCCn1cnc2cc(NCc3ccc(Cl)cc3Cl)ccc21`, which IC90 [13] is on record?
A: 16 µM

Q: With `Clc1ccc2c(c1)N(CCC[P+](c1ccccc1)(c1ccccc1)c1ccccc1)c1ccccc1S2.[Cl-]` as the molecule, how does the MIC [6] read?
A: 1 µg/mL

Q: How did the MIC [14] turn out when `COc1ccc(/C=C2/S/C(=N/N=C/c3ccccc3O)NC2=O)cc1` was run?
A: 4 µg/mL (≈ 11300 nM)

Q: What about the MIC90 [15] of the same molecule?
A: 1 µg/mL (≈ 2830 nM)

Q: `CC1(C)CCC(NC(=O)c2cc3c(F)cc(F)cc3[nH]2)CC1` was tested. Which Activity [16] did it give?
A: 3.4 log10CFU

Q: What about the Activity [17] of the same molecule?
A: 0.9 log10CFU

Q: Which MIC [7] does the source give for `CSc1ccc2c(c1)N(CCC1CCCCN1C)c1ccccc1S2` (stereo not drawn) [THIORIDAZINE] here?
A: 15 µg/mL

Q: Which MIC99 [8] does the source give for `C[C@H]1COC2(CCN(c3nc(=O)c4cc(C(F)(F)F)cc([N+](=O)[O-])c4s3)CC2)O1` [BTZ-043] here?
A: 0.002 µg/mL (≈ 4.64 nM)

Q: `FC(F)(F)c1ccc2c(c1)N(CCC[P+](c1ccccc1)(c1ccccc1)c1ccccc1)c1ccccc1S2.[Cl-]` was tested. Which MIC50 [7] did it give?
A: 1 µg/mL

Q: For `O=c1c(NCc2ccccn2)c(-c2ccc(N3CCOCC3)cc2)c1=O`, which MIC [7] is on record?
A: 0.016 µg/mL

Q: With `O=c1nc(N2CC3CN(Cc4ccc(Cl)c(F)c4)CC3C2)sc2c([N+](=O)[O-])cc(C(F)(F)F)cc12` (stereo not drawn) as the molecule, how does the MIC [9] read?
A: < 0.035 µM

Q: `O=c1nc(N2CCN(S(=O)(=O)c3cccs3)CC2)sc2c([N+](=O)[O-])cc(C(F)(F)F)cc12` was tested. Which MIC [12] did it give?
A: 0.004 µg/mL (≈ 7.9 nM)

Q: For `O=C(/C=C/c1ccsc1)N1CCN(Cc2ccc3c(c2)OCO3)CC1`, which MIC [18] is on record?
A: 0.1 µg/mL (≈ 281 nM)

Q: What about the IC50 [19] of the same molecule?
A: 0.3 µg/mL (≈ 842 nM)

Q: Which MIC [11] does the source give for `O=c1nc(N2CCN(CCC3CCCCC3)CC2)sc2c([N+](=O)[O-])cc(C(F)(F)F)cc12` here?
A: 0.00019 µg/mL (≈ 0.404 nM)

Q: How did the MIC [20] turn out when `O=c1nc(N2CCN(CC3CCCCC3)CC2)sc2c(-n3cccc3)cc(C(F)(F)F)cc12` was run?
A: 0.34 µM (≈ 0.162 µg/mL)

Q: And the IC50 [21]?
A: < 8 µM

Q: `CCS(=O)(=O)N1CCN(c2nc(=O)c3cc(C(F)(F)F)cc([N+](=O)[O-])c3s2)CC1` was tested. Which MIC [12] did it give?
A: 0.003 µg/mL (≈ 6.63 nM)

Q: `COc1ccc(CNc2nc3cc(C(F)(F)F)ccc3nc2C(=O)O)cc1` was tested. Which MIC99 [11] did it give?
A: 3.1 µM (≈ 1.17 µg/mL)

Q: What about the IC50 [22] of the same molecule?
A: 2.5 µM

Q: With `CCOC(=O)c1c(-c2ccccc2)oc2ccc(O)c(CN3CCC(C)CC3)c12` as the molecule, how does the MIC [10] read?
A: 2.3 µM (≈ 0.905 µg/mL)

Q: For `CCc1ccc([C@H]2C[C@@H](C(F)(F)F)n3ncc(C(=O)NCc4ccc5c(c4)OCO5)c3N2)cc1`, which MIC [5] is on record?
A: 0.16 µM (≈ 0.0756 µg/mL)
